Read-outs that look alike come from different tables or passages of the source.
How the values were obtained:
[1] = tested on: wild-type and mutant p53, NF-κB, and ubiquitin E1; assay: Degradation of redox-sensitive proteins by disulfiram; assay type: cell-based
MGMT [2] = molecular target: T1, MGMT (Homo sapiens, UniProt P16455); assay: MGMT activity and protein (western blot) in drug-treated T98G and UW228 brain tumor cells; assay type: cell-based; design: endogenous in cells; host or cells: UW228, T98G
T1 sequence (P16455 1-207): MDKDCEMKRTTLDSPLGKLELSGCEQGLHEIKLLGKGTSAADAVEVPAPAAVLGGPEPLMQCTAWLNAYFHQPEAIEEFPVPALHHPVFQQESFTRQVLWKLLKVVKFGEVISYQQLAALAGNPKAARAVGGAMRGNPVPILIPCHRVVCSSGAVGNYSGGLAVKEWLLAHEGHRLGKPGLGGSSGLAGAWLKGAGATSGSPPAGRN
Experimental: (§1) The DNA repair activity of MGMT was measured by the transfer of [3H]-labeled methyl groups from the O^6-position of guanine in the DNA substrate to the MGMT protein as described previously. The DNA substrate enriched in O6-methylguanine was prepared by reacting [3H]-methylnitrosourea (GE Healthcare, 60 Ci/mmol). Briefly, the cell pellets were washed with cold PBS, disrupted by sonication in the assay buffer (30 mM Tris-HCl pH 7.5, 0.5 mM DTT, 0.5 mM EDTA, 5% glycerol, and 20 μM spermidine) and centrifuged. The extracts (50-150 μg protein) were supplemented with the [3H]-DNA (10,000 cpm) and incubated at 37° C. The reactions were terminated by the addition of TCA, the DNA substrate was hydrolyzed at 80° C., and following filtration on glass fiber discs; the radioactivity present in protein precipitates was quantitated.
After trypsinization, the cell pellets were washed with cold PBS, and subjected to sonication in 50 mM Tris-HCl (pH 8.0) containing 1% glycerol, 1 mM EDTA, 0.5 mM PMSF and 2 mM benzamidine and centrifuged. Equal protein amounts from different treatments were electrophoresed on 12% SDS-polyacrylamide gels. Proteins were electro-transferred to Immobilon-P membranes. The membranes were blocked with 5% non-fat dry milk in Trisbuffered saline (TBS; pH 8.0) containing 0.1% Tween 20 for 3 hours, and subsequently incubated with appropriate primary antibodies. Antigen-antibody complexes were visualized by enhanced chemiluminiscence (Pierce Company). Band intensities were quantified using a Bio-Rad Versa Doc Imaging system.
(§2) Cells were trypsinized, washed and MGMT activity was determined in cell extracts (top panel). The same extracts were western blotted for MGMT protein. WB, western blot. […] Cells were exposed to CuDSF and analyzed for MGMT activity and protein as above. […] To delineate the appropriate time for alkylating drug treatments following MGMT inhibition, next, the time course of MGMT depletion by these three interventions was studied.
At times indicated, MGMT activity and protein levels were assessed.
MGMT performs a stoichiometric reaction to accomplish the DNA repair and is not recycled to its active form. Instead, the inactivated protein is degraded and fresh translation has to occur to restore the MGMT levels in cells. The rate and extent of this recovery is an important factor in the extent of damage introduced to the normal cell genomes such as the bone marrow stem cells. […] MGMT protein and activity levels were analyzed during the depletion and repletion (FIG. 3B).

UW228 cells = assay: MTT cell survival assay; assay type: cell-based, human
Experimental: These were performed using the yellow tetrazolium dye (3-(4, 5-dimethylthiazolyl-2)-2, 5-diphenyl tetrazolium bromide) (MTT) as described previously. […] The purple color developed due to formazan was measured at 570 nm using a […]luor Plus plate reader (Tecan Inc.). Cell proliferation was also assessed by colony formation assays on soft agar.
Cells were then cultured for 48 hours before performing the MTT assays. […] The effect of drugs on cell survival was computed at each concentration. The data represents the results of three independent experiments performed in triplicate.

[3] = cited from earlier work
[4] = molecular target: T2, purified recombinant MGMT (rMGMT) (Homo sapiens, UniProt P16455); assay: MGMT DNA repair activity ([3H]-methyl transfer), purified recombinant MGMT treated with DSF; assay type: biochemical
T2 construct: hexa-histidine; made in house; host or cells: E. coli
Experimental: as §1, §2

[5] = molecular target: T3, cellular MGMT (UW228 cell-free extracts) (Homo sapiens, UniProt P16455); assay: MGMT DNA repair activity in UW228 cell-free extracts treated with DSF; assay type: biochemical; conditions: 25 μM DSF, 20 minutes
T3 construct: endogenous in cells; host or cells: UW228, T98G
Experimental: as §1, §2

MGMT [6] = molecular target: T1, MGMT; assay: MGMT activity and protein in MGMT-proficient human cancer cell lines (HT29, T47D, HCT116); assay type: cell-based; design: endogenous in cells; host or cells: HT29, T47D, HCT116
rMGMT = molecular target: T4, rMGMT (Homo sapiens, UniProt P16455); assay: In vitro degradation of DSF treated rMGMT in rabbit reticulocyte lysates; assay type: biochemical
T4 construct: hexa-histidine; made in house; host or cells: E. coli
T4 sequence (P16455 1-207): T1 sequence (P16455 1-207)
Source text: DSF-exposed MGMT samples were dialyzed to remove the residual drug prior to the degradation assays. […] The protein bands were quantified by densitometry.
The samples were immunoblotted and probed with MGMT antibodies (right panel). The densitometric quantitation of protein bands on the western blots is shown as a line graph on the left. […] Cell lysates were western blotted for the MGMT protein. […] Kinetics of DNA interstrand crosslinks formed in UW228 cells after treatment with […] BCNU or […] melphalan is shown. […] They were then exposed to BCNU or melphalan. At times specified, the cells were harvested, DNA isolated and the extent of interstrand crosslinking of DNA was determined using the ethidium bromide fluorescence assay. Values are mean+S.D. The results were significant at P<0.05. […] The cells were trypsinized at times indicated and analyzed by flow cytometry.
Since the MGMT inactivated by BG is degraded through ub-proteolysis, it was of interest to investigate the mode of elimination of DSF-modified MGMT protein. Therefore, first, we compared the in vitro degradation of DSF-treated and untreated rMGMT protein in rabbit reticulocyte lysates (RL), which are known to promote the proteasomal degradation. The control and DSF-modified MGMT proteins were incubated with RL in the presence of Mg++, ATP and ubiquitin at 37° C. The reaction mixtures were blotted and probed with MGMT antibodies. […] To show the involvement of the ub-proteolysis in cells a clinically used proteasome inhibitor. […] Taken together, the results presented in FIGS. 4A-4B confirm that DSF-modified MGMT is perceived as a structurally altered/damaged protein in cells and eliminated through the ub-proteasomal route.

- duration of inactivation of MGMT (MGMT [2]): > 30 h
- duration of suppression of MGMT activity in cell cultures (MGMT [2]): 24 to 36 h
- inhibition at 50 µM (MGMT [2]; 50 μM in culture medium, at 12 hours, maintained till 24 hours, read-out: maximal inhibition of MGMT activity and protein): 75%
- inhibition at 50 µM (MGMT [2]; UW228 cells, 50 μM, 12 hours, read-out: loss/inhibition of MGMT activity at 12 hours post-drug treatment): 75%
- reversibility of DSF modification of MGMT by DTT (MGMT [2]; UW228 cells, 10 mM DTT): largely irreversible
- recovery of MGMT activity, % of control levels (MGMT [2]; UW228 cells, 48 hours post-drug in drug-free media after 50 μM for 12 hours): ~95 % of control levels
- inhibition at 50 µM (MGMT [2]; read-out: inhibition of MGMT activity): ~70%
- inhibition at 25 µM [4]: 40%
- repair activity in the extracts curtailed [5]: 75%
- degradation of MGMT (MGMT [6]; 200 μM, 12 hours): about 70%
- inhibition at 400 µM (MGMT [6]; HT29 and HCT116 cells, 400 μM, 20 hour): 95%
- disappearance of DSF-modified rMGMT protein (rMGMT; 10 minutes of incubation): 30%
- disappearance of DSF-modified rMGMT protein (rMGMT; 25 minutes of incubation): 45%
- disappearance of DSF-modified rMGMT protein (rMGMT; 40 minutes of incubation): 70%
Structure (SMILES): CCN(CC)C(=S)SSC(=S)N(CC)CC [DSF, 1,1′,1″,1′″-[disulfanediylbis(carbonothioylnitrilo)]tetraethane]
- degradation of redox-sensitive proteins [1]: degraded by disulfiram in a dose-dependent manner
- effect on melphalan-induced cell killing (UW228 cells; 50 μM DSF preincubation 12 hours): did not increase the melphalan-induced cell killing
- potentiation of BCNU cytotoxicity (UW228 cells; 50 μM DSF preincubation 12 hours, BCNU 4 days): 3 fold
- increased cytotoxicity of TMZ+DSF compared to TMZ alone (UW228 cells; 50 μM DSF preincubation 12 hours, TMZ 4 days): 4 to 5 fold
- cell killing by DSF alone (UW228 cells; 50 μM DSF, 24 hours, then cultured 48 hours): less than 5%
- partition coefficient Log P [3]: 2.8
